Experimental findings from patent US20220024921A1, “1,3,4-OXADIAZOLONE COMPOUND AND PHARMACEUTICAL” (NIPPON SHINYAKU CO., LTD., priority 2018, published 2022) are described below.

Counter-ions that a name gives are not always drawn.

For assay [1], the target named is T1, PIM1 serine/threonine kinase (Homo sapiens, UniProt P11309).
T1 construct: purchased Carna Bioscience, Inc
Nature of the assay: PIM1 serine/threonine kinase inhibitory effect. As to conditions: PIM1 serine/threonine kinase activity; ATP 40 μM; 30° C., 30 minutes. The assay is classed as biochemical. The gist of the method: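 Recombinant PIM1 (0.15 μg/ml final) with 0.5 μM biotinylated substrate and 40 μM ATP in pH 7.0 HEPES/MgCl2 buffer, 30 min at 30° C. Compound range was 0.01–10000 nM final, n=2. HTRF detection with streptavidin-XL665 and anti-phospho antibody-cryptate, 1 h; IC50 from non-linear regression of the 665/620 ratio.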

Assay [2] deals with PIM1 transgenic cells (Ba/F3) (Homo sapiens, UniProt P11309). Nature of the assay: Proliferation inhibitory effect on PIM1 transgenic cells. The assay is classed as cell-based, mouse. The conditions noted are these: proliferation inhibition, 72 hours, Cell Counting Kit-8, read-out: PIM1 IC50. The procedure, abridged: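 Mouse Ba/F3 pro-B cells were retrovirally transduced with human PIM1 so that their proliferation depends on PIM1. Cells were treated with compound at 1–10000 nM final for 72 h, then read by CCK-8 (OD450−OD650). Inhibition was set against DMSO (0%) and no-cell blank (100%), and IC50 was obtained by two-parameter logistic regression.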
PIM1 transgenic cells (Ba/F3), sequence (P11309 whole entry, stated change not applied): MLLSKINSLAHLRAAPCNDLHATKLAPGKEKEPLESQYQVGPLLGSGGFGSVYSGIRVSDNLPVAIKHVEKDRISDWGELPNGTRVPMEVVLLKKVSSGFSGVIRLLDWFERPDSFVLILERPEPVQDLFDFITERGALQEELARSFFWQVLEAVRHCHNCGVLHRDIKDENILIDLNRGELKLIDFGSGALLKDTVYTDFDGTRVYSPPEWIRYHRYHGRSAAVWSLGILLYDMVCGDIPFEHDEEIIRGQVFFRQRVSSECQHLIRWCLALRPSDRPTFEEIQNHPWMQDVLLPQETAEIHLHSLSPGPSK

T1 sequence (P11309 whole entry): as the sequence (P11309 whole entry, stated change not applied) above

The molecule `C[C@H](Nc1cc(-c2n[nH]c(=O)o2)cc(F)c1C(F)(F)F)[C@H]1C[C@@H](N)C1` [Example 165, 5-[3-({(1S)-1-[(1s,3R)-3-aminocyclobutyl]ethyl}amino)-5-fluoro-4-(trifluoromethyl)phenyl]-1,3,4-oxadiazol-2(3H)-one] came in with an IC50 in assay [1] of 2.2 nM. In addition, in assay [2], the GI50 was determined as 25 nM.
The like results for `C[C@H](Nc1cc(-c2n[nH]c(=O)o2)cc(C#N)c1Cl)C1CCNCC1` [Example 110, 2-chloro-5-(5-oxo-4,5-dihydro-1,3,4-oxadiazol-2-yl)-3-{[(1S)-1-(piperidin-4-yl)ethyl]amino}benzonitrile hydrochloride] were, in that order, 3.5 nM and 2100 nM.
Regarding `CO/N=C1\CCN([C@@H](C)[C@H]2CCNC[C@H]2C)c2cc(-c3n[nH]c(=O)o3)cc(F)c21` [Example 246, 5-[(4E)-5-fluoro-4-(methoxyimino)-1-{(1S)-1-[(3S,4S)-3-methylpiperidin-4-yl]ethyl}-1,2,3,4-tetrahydroquinolin-7-yl]-1,3,4-oxadiazol-2(3H)-one hydrochloride], half-maximal inhibition in assay [1] (IC50) was put at 1.9 nM. Moreover, in assay [2], the GI50 turned out to be 4900 nM.
In assay [1], `C[C@H](Nc1cc(-c2n[nH]c(=O)o2)ccc1C(F)(F)F)[C@H]1CCC[C@@H](N)C1` [Example 194, 5-[3-({(1S)-1-[(1S,3R)-3-aminocyclohexyl]ethyl}amino)-4-(trifluoromethyl)phenyl]-1,3,4-oxadiazol-2(3H)-one hydrochloride] came in with an IC50 of 12 nM. Further, the GI50 in assay [2] turned out to be 280 nM.
The molecule `O=c1[nH]nc(-c2ccc(C(F)(F)F)c(N[C@@H](C(F)F)C3(F)CCNCC3)c2)o1` [Example 140, 5-[3-{[(1R)-2,2-difluoro-1-(4-fluoropiperidin-4-yl)ethyl]amino}-4-(trifluoromethyl)phenyl]-1,3,4-oxadiazol-2(3H)-one hydrochloride] gave an IC50 in assay [1] of 4.1 nM. Moreover, the GI50 in assay [2] is 57 nM.
In assay [1], `C[C@H](Nc1cc(-c2n[nH]c(=O)o2)cc(F)c1C1CC1)[C@H]1CC[C@H](N)CC1` [Example 230, 5-[3-({(1S)-1-[(1r,4S)-4-aminocyclohexyl]ethyl}amino)-4-cyclopropyl-5-fluorophenyl]-1,3,4-oxadiazol-2(3H)-one] had an IC50 of 3.3 nM. The GI50 in assay [2] was 22 nM.
For the molecule `C[C@H](Nc1cc(-c2n[nH]c(=O)o2)cc(Cl)c1Cl)[C@H]1C[C@@H](N)C1` [Example 179, 5-[3-({(1S)-1-[(1s,3R)-3-aminocyclobutyl]ethyl}amino)-4,5-dichlorophenyl]-1,3,4-oxadiazol-2(3H)-one dihydrochloride], the IC50 in assay [1] was found to be 2 nM. In assay [2], the GI50 amounted to 23 nM.
Consider `O=c1[nH]nc(-c2ccc(C(F)(F)F)c(NCCC3CCCNC3)c2)o1` (stereo not shown) [Example 60, 5-[3-{[2-(piperidin-3-yl)ethyl]amino}-4-(trifluoromethyl)phenyl]-1,3,4-oxadiazol-2(3H)-one hydrochloride], for which the IC50 in assay [1] amounted to 13 nM. Moreover, the GI50 in assay [2] amounted to 3100 nM.
Turning to `C[C@H](Nc1cc(-c2n[nH]c(=O)o2)ccc1C(F)(F)F)[C@@H]1CC[C@H](N)C1` [Example 200, 5-[3-({(1S)-1-[(1R,3S)-3-aminocyclopentyl]ethyl}amino)-4-(trifluoromethyl)phenyl]-1,3,4-oxadiazol-2(3H)-one hydrochloride], it took 8.5 nM to reach half-maximal inhibition in assay [1] (IC50). Also, the GI50 in assay [2] came out at 100 nM.
For the molecule `Cc1c(Cl)cc(-c2n[nH]c(=O)o2)cc1N[C@@H](C)C1CCNCC1` [Example 98, 5-(3-chloro-4-methyl-5-{[(1S)-1-(piperidin-4-yl)ethyl]amino}phenyl)-1,3,4-oxadiazol-2(3H)-one dihydrochloride], in assay [1], the midpoint of inhibition, the IC50, lay at 2 nM. The GI50 in assay [2] was 79 nM.
The like results for `C[C@H](Nc1cc(-c2n[nH]c(=O)o2)cc(F)c1C(F)(F)F)C1(C)CCNCC1` [Example 206, 5-[3-fluoro-5-{[(1S)-1-(4-methylpiperidin-4-yl)ethyl]amino}-4-(trifluoromethyl)phenyl]-1,3,4-oxadiazol-2(3H)-one] were, in that order, 1.7 nM and 32 nM.
Molecule `C[C@H](Nc1cc(-c2n[nH]c(=O)o2)ccc1C(F)(F)F)C12C3C4C1C1C2C3C41N` (stereo partly drawn) [Example 186, 5-[3-({(1S)-1-[(2S,3R)-4-aminocuban-1-yl]ethyl}amino)-4-(trifluoromethyl)phenyl]-1,3,4-oxadiazol-2(3H)-one hydrochloride] registered an IC50 in assay [1] of 11 nM. For the same molecule, the GI50 in assay [2] was determined as 2300 nM.
Consider `C[C@H](Nc1cc(-c2n[nH]c(=O)o2)cc(F)c1F)C1CCNCC1` [Example 89, 5-(3,4-difluoro-5-{[(1S)-1-(piperidin-4-yl)ethyl]amino}phenyl)-1,3,4-oxadiazol-2(3H)-one], for which, in assay [1], the half-maximal inhibitory concentration (IC50) came to 5.4 nM. Also, the GI50 in assay [2] is 250 nM.
For `O=c1[nH]nc(-c2ccc(C(F)(F)F)c(C#CC3CCNCC3)c2)o1` [Example 29, 5-{3-[(piperidin-4-yl)ethynyl]-4-(trifluoromethyl)phenyl}-1,3,4-oxadiazol-2(3H)-one hydrochloride], inhibition in assay [1] was half-maximal at 18 nM (IC50). Besides, the GI50 in assay [2] was 1100 nM.
For `C[C@@H]1CN([C@@H](C)[C@H]2CC[C@H](N)CC2)c2cc(-c3n[nH]c(=O)o3)cc(F)c2O1` [Example 253, 5-[(2R)-4-{(1S)-1-[(1r,4S)-4-aminocyclohexyl]ethyl}-8-fluoro-2-methyl-3,4-dihydro-2H-1,4-benzoxazin-6-yl]-1,3,4-oxadiazol-2(3H)-one hydrochloride], half-maximal inhibition in assay [1] (IC50) required 3 nM. Besides, the GI50 in assay [2] turned out to be 81 nM.
With `C[C@@H]([C@H]1CC[C@H](N)CC1)N1CCOc2ccc(-c3n[nH]c(=O)o3)cc21` [Example 247, 5-(4-{(1S)-1-[(1r,4S)-4-aminocyclohexyl]ethyl}-3,4-dihydro-2H-1,4-benzoxazin-6-yl)-1,3,4-oxadiazol-2(3H)-one], in assay [1], 2.8 nM corresponded to half-maximal inhibition (IC50). Also, in assay [2], the GI50 was found to be 120 nM.
The like results for `C[C@H](Nc1cc(-c2n[nH]c(=O)o2)cc([N+](=O)[O-])c1Cl)C1CCNCC1` [Example 91, 5-(4-chloro-3-nitro-5-{[(1S)-1-(piperidin-4-yl)ethyl]amino}phenyl)-1,3,4-oxadiazol-2(3H)-one hydrochloride] were, in that order, 1.5 nM and 210 nM.
In assay [1], `NCCC1CCN(c2cc(-c3n[nH]c(=O)o3)cc3[nH]ncc23)CC1` [Example 12, 5-{4-[4-(2-aminoethyl)piperidin-1-yl]-1H-indazol-6-yl}-1,3,4-oxadiazol-2(3H)-one dihydrochloride] returned an IC50 of 13 nM. The GI50 in assay [2] worked out at 5100 nM.
In assay [1], `C[C@H](Nc1cc(-c2n[nH]c(=O)o2)cc(Cl)c1Cl)C1CCNCC1` [Example 79, 5-(3,4-dichloro-5-{[(1S)-1-(piperidin-4-yl)ethyl]amino}phenyl)-1,3,4-oxadiazol-2(3H)-one dihydrochloride] had an IC50 of 0.8 nM. For the same molecule, in assay [2], the GI50 turned out to be 53 nM.
The molecule `O=c1[nH]nc(-c2ccc(C(F)(F)F)c(N3CCC4(CCNCC4)CC3)c2)o1` [Example 15, 5-[3-(3,9-diazaspiro[5.5]undecan-3-yl)-4-(trifluoromethyl)phenyl]-1,3,4-oxadiazol-2(3H)-one hydrochloride] yielded an IC50 in assay [1] of 15 nM. For the same molecule, the GI50 in assay [2] was found to be 600 nM.
Take `C[C@H](Nc1cc(-c2n[nH]c(=O)o2)cc(Cl)c1Cl)[C@H]1CC[C@H](N)CC1` [Example 174, 5-[3-({(1S)-1-[(1r,4S)-4-aminocyclohexyl]ethyl}amino)-4,5-dichlorophenyl]-1,3,4-oxadiazol-2(3H)-one hydrochloride]: half-maximal inhibition in assay [1] (IC50) required 1.6 nM. In addition, the GI50 in assay [2] turned out to be 18 nM.
Taken in the same sequence, the figures for `CN(C[C@H]1CC[C@H](N)CC1)c1cc(-c2n[nH]c(=O)o2)ccc1C(F)(F)F` [Example 130, 5-{3-[{[(1r,4r)-4-aminocyclohexyl]methyl}(methyl)amino]-4-(trifluoromethyl)phenyl}-1,3,4-oxadiazol-2(3H)-one hydrochloride] were 19 nM and 280 nM.
In assay [1], `O=c1[nH]nc(-c2ccc(C(F)(F)F)c(N3CCC4(CC3)CNC4)c2)o1` [Example 16, 5-[3-(2,7-diazaspiro[3.5]nonan-7-yl)-4-(trifluoromethyl)phenyl]-1,3,4-oxadiazol-2(3H)-one hydrochloride] showed an IC50 of 53 nM. The GI50 in assay [2] amounted to 2400 nM.
In turn, `C[C@H](Nc1cc(-c2n[nH]c(=O)o2)ccc1Cl)[C@@H]1C[C@H](N)C1(C)C` [Example 158, 5-[3-({(1S)-1-[(1R,3S)-3-amino-2,2-dimethylcyclobutyl]ethyl}amino)-4-chlorophenyl]-1,3,4-oxadiazol-2(3H)-one hydrochloride] displayed an IC50 in assay [1] of 3.3 nM. In assay [2], the GI50 was found to be 37 nM.
In assay [1], `C[C@H](Nc1cc(-c2n[nH]c(=O)o2)cc(F)c1C(F)(F)F)[C@@H]1C[C@H](N)C1(C)C` [Example 150, 5-[3-({(1S)-1-[(1R,3S)-3-amino-2,2-dimethylcyclobutyl]ethyl}amino)-5-fluoro-4-(trifluoromethyl)phenyl]-1,3,4-oxadiazol-2(3H)-one hydrochloride] yielded a half-inhibitory concentration (IC50) of 2 nM. In addition, the GI50 in assay [2] came to 9.2 nM.
Taken in the same sequence, the figures for `Cc1ccc(-c2n[nH]c(=O)o2)cc1NC[C@H]1CC[C@H](N)CC1` [Example 67, 5-[3-({[(1r,4r)-4-aminocyclohexyl]methyl}amino)-4-methylphenyl]-1,3,4-oxadiazol-2(3H)-one hydrochloride] were 26 nM and 610 nM.

Usually IC50 stands for the concentration at which inhibition is half-maximal. Read a low IC50 as greater potency in that assay.
